From PubChem BioAssay AID328 (DTP/NCI, 2004)
“And” between values parts separate entries of the source, which are not always exact repeats. Equal values may be shown once. Toxic doses and inconclusive results are not listed. How the source made its calls: active means survival T/C of 150% or more; inactive means T/C below 125% in these data.

Tested on: BDF1 mice, P388 leukemia ip, median survival T/C
Experiment: NCI In Vivo Anticancer Drug Screen. Data for tumor model P388 Leukemia (intraperitoneal) in B6D2F1 (BDF1) mice
Details: endpoint: median survival time, higher = longer survival
In short: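 Vehicle-dosed animals serve as the reference; survival of compound-dosed, tumour-implanted mice is divided by it.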

[1] = dose: 25.0 mg/kg/injection, schedule: Q04DX003 (ip), vehicle: saline
[2] = dose: 150.0 mg/kg/injection, schedule: Q04DX003 (ip), vehicle: saline
[3] = dose: 50.0 mg/kg/injection, schedule: Q01DX009 (ip), vehicle: saline with Tween-80
[4] = dose: 100.0 mg/kg/injection, schedule: Q01DX009 (ip), vehicle: saline with Tween-80
[5] = dose: 100.0 mg/kg/injection, schedule: Q04DX003 (ip), vehicle: saline with Tween-80
[6] = dose: 200.0 mg/kg/injection, schedule: Q04DX003 (ip), vehicle: saline with Tween-80
[7] = dose: 3.12 mg/kg/injection, schedule: Q01DX009 (ip), vehicle: saline
[8] = dose: 6.25 mg/kg/injection, schedule: Q01DX009 (ip), vehicle: saline
[9] = dose: 12.5 mg/kg/injection, schedule: Q01DX009 (ip), vehicle: saline
[10] = dose: 75.0 mg/kg/injection, schedule: Q01DX009 (ip), vehicle: saline with Tween-80
[11] = dose: 25.0 mg/kg/injection, schedule: Q01DX009 (ip), vehicle: saline
[12] = dose: 50.0 mg/kg/injection, schedule: Q01DX009 (ip), vehicle: saline
[13] = dose: 100.0 mg/kg/injection, schedule: Q01DX009 (ip), vehicle: saline
[14] = dose: 200.0 mg/kg/injection, schedule: Q01DX009 (ip), vehicle: saline with Tween-80

Measured: T/C

Cn1cnc([N+](=O)[O-])c1Sc1nc(N)nc2c1ncn2C1OC(CO)C(O)C1O (stereo unspecified)
inactive: dose: 7.03 mg/kg/injection, schedule: Q01DX009 (ip), vehicle: saline 120 % of control | dose: 21.0 mg/kg/injection, schedule: Q01DX009 (ip), vehicle: saline 95 % of control | dose: 56.25 mg/kg/injection, schedule: Q01DX009 (ip), vehicle: saline 100 % of control | [2] 104 % of control and 113 % of control | dose: 225.0 mg/kg/injection, schedule: Q04DX003 (ip), vehicle: saline 109 % of control | dose: 335.0 mg/kg/injection, schedule: Q04DX003 (ip), vehicle: saline 109 % of control
active: dose: 7.0 mg/kg/injection, schedule: Q04DX003 (ip), vehicle: saline 163 % of control | dose: 9.2 mg/kg/injection, schedule: Q01DX009 (ip), vehicle: saline 163 % of control | dose: 14.06 mg/kg/injection, schedule: Q01DX009 (ip), vehicle: saline 163 % of control | dose: 16.0 mg/kg/injection, schedule: Q04DX003 (ip), vehicle: saline 168 % of control and 172 % of control | [1] 161 % of control and 168 % of control

CC(Br)CNC(=O)c1ccc([N+](=O)[O-])cc1 (stereo unspecified)
inactive: dose: 25.0 mg/kg/injection, schedule: Q04DX003 (ip), vehicle: Klucel (hydroxypropylcellulose) (HPC) 109 % of control | dose: 50.0 mg/kg/injection, schedule: Q04DX003 (ip), vehicle: Klucel (hydroxypropylcellulose) (HPC) 109 % of control | dose: 100.0 mg/kg/injection, schedule: Q04DX003 (ip), vehicle: Klucel (hydroxypropylcellulose) (HPC) 100 % of control

C[C@@H]1C[C@H]2CC[C@H](O2)[C@H](C)C(=O)O[C@@H](C)C[C@@H]2CC[C@@H](O2)[C@@H](C)C(=O)O[C@H](C)C[C@H]2CC[C@H](O2)[C@H](C)C(=O)O[C@@H](C)C[C@@H]2CC[C@@H](O2)[C@@H](C)C(=O)O1
inactive: [3] 90 % of control | [4] 109 % of control | [5] 104 % of control | [6] 86 % of control

C[n+]1ccc(C#N)c2ccccc21
inactive: dose: 1.1 mg/kg/injection, schedule: Q04DX003 (ip), vehicle: saline 92 % of control and 100 % of control | dose: 1.71 mg/kg/injection, schedule: Q04DX003 (ip), vehicle: saline 95 % of control | dose: 2.5 mg/kg/injection, schedule: Q04DX003 (ip), vehicle: saline 88 % of control and 95 % of control | [7] 104 % of control | dose: 3.43 mg/kg/injection, schedule: Q04DX003 (ip), vehicle: saline 120 % of control | [8] 118 % of control | dose: 6.87 mg/kg/injection, schedule: Q04DX003 (ip), vehicle: saline 100 % of control | dose: 7.5 mg/kg/injection, schedule: Q04DX003 (ip), vehicle: saline with Tween-80 91 % of control | dose: 11.0 mg/kg/injection, schedule: Q01DX009 (ip), vehicle: saline 120 % of control | [9] 118 % of control | dose: 15.0 mg/kg/injection, schedule: Q04DX003 (ip), vehicle: saline with Tween-80 104 % of control

CNC(=O)O/N=C(\CN=[N+]=[N-])C(C)(C)C
inactive: dose: 0.2 mg/kg/injection, schedule: Q01DX009 (ip), vehicle: saline 92 % of control | dose: 0.39 mg/kg/injection, schedule: Q01DX009 (ip), vehicle: saline 88 % of control | dose: 0.78 mg/kg/injection, schedule: Q01DX009 (ip), vehicle: saline 122 % of control

Cc1cc(N(CCC(=O)O)CCC(=O)O)ccc1/C=C/c1ccc2cc(Cl)ccc2[n+]1C
inactive: dose: 12.5 mg/kg/injection, schedule: Q01DX001 (ip), vehicle: saline with Tween-80 96 % of control | dose: 25.0 mg/kg/injection, schedule: Q01DX001 (ip), vehicle: saline with Tween-80 96 % of control | dose: 50.0 mg/kg/injection, schedule: Q01DX001 (ip), vehicle: saline with Tween-80 94 % of control

O=C(/C=C/c1ccc(OCc2ccccc2)cc1)c1cccs1
inactive: [3] 98 % of control | [4] 92 % of control

COc1c(C)c(OCC=C(C)C)cc(CO)c1CO
inactive: dose: 50.0 mg/kg/injection, schedule: Q01DX009 (ip), vehicle: Klucel (hydroxypropylcellulose) (HPC) 109 % of control | dose: 100.0 mg/kg/injection, schedule: Q01DX009 (ip), vehicle: Klucel (hydroxypropylcellulose) (HPC) 109 % of control | dose: 200.0 mg/kg/injection, schedule: Q01DX009 (ip), vehicle: Klucel (hydroxypropylcellulose) (HPC) 100 % of control

OCC(O)C(O)C(O)c1cnn(-c2ccccc2)n1 (stereo unspecified)
inactive: [10] 96 % of control | dose: 150.0 mg/kg/injection, schedule: Q01DX009 (ip), vehicle: saline with Tween-80 89 % of control | dose: 300.0 mg/kg/injection, schedule: Q01DX009 (ip), vehicle: saline with Tween-80 96 % of control

CC(=N\O)/C(C)=N/O.CC(=N\O)/C(C)=N/O.[Br][Rh][Br]
inactive: [11] 99 % of control | [12] 100 % of control | [13] 119 % of control and 92 % of control | dose: 200.0 mg/kg/injection, schedule: Q01DX009 (ip), vehicle: saline 110 % of control and 99 % of control and 100 % of control | dose: 400.0 mg/kg/injection, schedule: Q01DX009 (ip), vehicle: saline 100 % of control

O=[n+]1ccn2ccccc2c1
inactive: [11] 95 % of control | [12] 114 % of control | dose: 65.0 mg/kg/injection, schedule: Q01DX009 (ip), vehicle: saline 95 % of control | dose: 75.0 mg/kg/injection, schedule: Q04DX003 (ip), vehicle: saline 100 % of control | [13] 108 % of control | [2] 90 % of control

CCN(CC)Cc1nccn1-c1ccc([N+](=O)[O-])cc1C(=O)c1ccccc1Cl
inactive: [12] 100 % of control | [13] 118 % of control

c1cc[c]([Sn]([O][Sn]([c]2ccccc2)([c]2ccccc2)[c]2ccccc2)([c]2ccccc2)[c]2ccccc2)cc1
inactive: dose: 25.0 mg/kg/injection, schedule: Q04DX003 (ip), vehicle: saline with Tween-80 95 % of control

CN(C)CCC(=O)c1ccc(Cl)cc1
inactive: dose: 18.8 mg/kg/injection, schedule: Q01DX009 (ip), vehicle: saline with Tween-80 96 % of control | dose: 37.5 mg/kg/injection, schedule: Q01DX009 (ip), vehicle: saline with Tween-80 93 % of control | [10] 113 % of control

CCCCC(C)C(=O)CC(SCC)c1ccccc1 (stereo unspecified)
inactive: [3] 103 % of control | [4] 114 % of control | [14] 105 % of control

CC[C@H]1CN2CCc3cc(OC)c(OC)cc3[C@@H]2C[C@@H]1C[C@@H]1c2cc(OC)c(OC)cc2CCN1CCN(CCCl)CCCl
inactive: dose: 4.3 mg/kg/injection, schedule: Q04DX003 (ip), vehicle: saline with Tween-80 121 % of control | dose: 6.48 mg/kg/injection, schedule: Q04DX003 (ip), vehicle: saline with Tween-80 108 % of control | dose: 10.8 mg/kg/injection, schedule: Q04DX003 (ip), vehicle: saline with Tween-80 119 % of control
active: dose: 12.0 mg/kg/injection, schedule: Q04DX003 (ip), vehicle: saline with Tween-80 153 % of control | dose: 20.0 mg/kg/injection, schedule: Q04DX003 (ip), vehicle: saline with Tween-80 157 % of control

CSc1ncnc2c1ncn2CCCl
inactive: [3] 91 % of control | [4] 87 % of control | [5] 95 % of control | [14] 91 % of control | [6] 100 % of control

CCOC(=O)C(C(C)=O)C(c1ccc([N+](=O)[O-])cc1)C(C(C)=O)C(=O)OCC (stereo unspecified)
inactive: dose: 0.78 mg/kg/injection, schedule: Q04DX003 (ip), vehicle: saline 117 % of control | dose: 1.56 mg/kg/injection, schedule: Q04DX003 (ip), vehicle: saline 114 % of control | [7] 108 % of control | dose: 3.12 mg/kg/injection, schedule: Q04DX003 (ip), vehicle: saline 104 % of control | [8] 106 % of control | dose: 6.25 mg/kg/injection, schedule: Q04DX003 (ip), vehicle: saline 99 % of control | [9] 100 % of control | dose: 12.5 mg/kg/injection, schedule: Q04DX003 (ip), vehicle: saline 111 % of control | [11] 92 % of control | [1] 99 % of control | [12] 89 % of control | [13] 93 % of control

COC(CN1C(=O)CSC1=S)OC
inactive: dose: 25.0 mg/kg/injection, schedule: Q01DX009 (ip), vehicle: saline with Tween-80 100 % of control | [3] 104 % of control and 117 % of control | [14] 109 % of control

O=C(Nc1cc(C(F)(F)F)ccc1Cl)Nc1cc(C(F)(F)F)c(Cl)cc1S(=O)(=O)O
inactive: dose: 50.0 mg/kg/injection, schedule: Q04DX003 (ip), vehicle: saline 90 % of control | dose: 100.0 mg/kg/injection, schedule: Q04DX003 (ip), vehicle: saline 109 % of control | dose: 200.0 mg/kg/injection, schedule: Q04DX003 (ip), vehicle: saline 122 % of control
